Experimental data taken from patent US20090092631A1, “GLYCOSYLATED SPECIFICITY EXCHANGERS THAT INDUCE AN ANTIBODY DEPENDENT CELLULAR CYTOTOXICITY (ADCC) RESPONSE” (priority 2007, published 2009).

Tested on: human Gal-alpha1,3-Gal-specific antibodies
Experiment: Glycosylated peptide competitive assay on Gal-BSA coated plates with human sera IB72
Assay type: binding
Conditions: mixed with human sera, positive control
Experimental: To further evaluate the ability of the glycosylated specificity exchangers to bind to a pathogen, a glycosylated peptide competitive assay was performed using the most reactive human sera (IB72). In brief, Gal-alpha-1,3-Gal-labeled bovine serum albumin (Gal-BSA) was coated onto 96-well microplates in sodium carbonate buffer (pH: 9.6) at +4° C. overnight. Dilutions of human sera and dilutions of glyco-peptides (glycosylated HIV-specific ligand/receptor specificity exchangers or Gal-BSA) or non-glycosylated peptides (HIV-specific ligand/receptor specificity exchangers or BSA) were preincubated in phosphate-buffered saline (PBS) containing 1% bovine albumin, 2% goat serum and 0.05% Tween 20 at 37° C. for 1 h. The mixture was then added to the coated plates and incubated at 37° C. for 1 h, then washed 3 times with phosphate-buffered saline (PBS) containing 0.05% Tween 20 (pH: 7.4).
Bound antibodies were indicated with goat anti-human polyvalent Ig, conjugated with alkaline phosphatase. The plates were incubated and washed as described above. Plates were developed with phosphatase substrate at room temperature for 30 min, stopped with 1 M NaOH. Optical density (OD) at 405 nm/650 nm was determined to quantify the inhibition. […] Thus, specificity exchangers that bind Gal-alpha1,3-Gal-specific antibodies had been generated. […]

## Gal-alpha-1,3-Gal-labeled bovine serum albumin [Gal-BSA]
  inhibition of human antibody binding to Gal-BSA: 100%
